Where two headings read alike, the source gives them in different places. Square brackets hold non-standard residues; d marks the D form. Ends that are not written are not given here. Peptide text beside a SMILES is read from it. hLys = NCCCCC[C@H](N)C(=O)O
Columns and labels:
Thrombin [1] = target: T1, Thrombin (Homo sapiens, UniProt P00734); assay: Thrombin inhibition (Ki); format: biochemical
From the text: (§1) Thrombin is a major control point of the blood coagulation cascade, and inhibitors are of interest to combat thrombotic diseases.

[2] = From the text: as §1
Trypsin = target: T2, Trypsin (Bos taurus, UniProt P00760); assay: Trypsin inhibition (Ki); format: biochemical; conditions: at its limit of solubility in water
T2 construct: gene PRSS1
T2 sequence (P00760 24-246): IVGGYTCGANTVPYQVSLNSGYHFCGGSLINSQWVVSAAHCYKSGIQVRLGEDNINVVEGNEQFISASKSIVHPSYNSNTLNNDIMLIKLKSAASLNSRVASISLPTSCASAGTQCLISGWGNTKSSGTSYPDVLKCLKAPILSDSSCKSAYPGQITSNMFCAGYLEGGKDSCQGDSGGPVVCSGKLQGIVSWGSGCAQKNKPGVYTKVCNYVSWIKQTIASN
From the text: as §1

NT receptor = assay: Hypothermia in rats after I.V. or I.C. injection of NT(8-13) derivatives (brain uptake across the BBB); format: in vivo
From the text: Peptides 36, 39, 42, and 45 are NT(8-13) with non-natural amino acids 32-35 (Scheme L), respectively, were substituted for the Arg^(8) residue.

Thrombin [3] = target: T1, Thrombin; assay: Competitive inhibition of thrombin in vitro, chromogenic substrate (D)-Phe-Pip-Arg-p-NA; format: biochemical; design: 0.01 units of human thrombin (Sigma); purchased Sigma; conditions: for % Inhibition: peptide 20 μM, 0.01 units human thrombin, pH 7.5, 25° C.
Experimental: A (D)-Phe-Pro-Arg-Ala analogue containing non-natural amino acid (7) (as the racemic mixture in the side chain) in place of Arg was synthesized and compared to (D)-Phe-Pro-Arg-Ala as a competitive inhibitor of thrombin in vitro. The molecule referred to as 7 is Formula I, R1=[…], R2=H, R3=H, R13=H and N=4. The stereochemistry at C2 is racemic (equal D- and L-forms present).
Peptides were incubated individually at 20 μM concentrations with 0.01 units of human thrombin (Sigma) and saturating concentrations of the chromogenic substrate (D)-Phe-Pip-Arg-p-NA at pH 7.5 and 25° C. in 0.1 M phosphate buffer containing 0.2 M NaCl and 0.5% PEG (5c). Initial rates were determined by monitoring formation of p-NA at 405 nm in the absence and presence of the indicated peptides to determine % inhibition. Standard errors were<5%.

[4] = in vivo; cited from earlier work

N=C(N)NCCC[C@H](N)C(=O)O [Arg, arginine, reference compound]
Ki (Thrombin [1]; as the N-α-DNS, —COO-Pip derivatives, read-out: Thrombin K12): 83 ± 24 nM
RP-HPLC Retention Time [2]: 20.9 ± 0.02 min

CCNC(=N)NCCC[C@H](N)C(=O)O [Compound 31, N(γ)ethyl-Arg]
Ki (Thrombin [1]): 190 ± 66 nM
increase in thrombin/trypsin Ki selectivity ratio compared with arginine (Thrombin [1]; KI (Thrombin/Trypsin), 31 versus arginine): ≥ 60 fold
lipophilicity based on RP-HPLC ([2]; compared with arginine): more lipophilic
RP-HPLC Retention Time ([2]; measure of lipophilicity, as the N-α-DNS, —COO-Pip derivatives): 23.1 ± 0.01 min
inhibition of trypsin at limit of solubility in water (Trypsin): does not inhibit trypsin

CC[C@H](C)[C@H](NC(=O)[C@H](Cc1ccc(O)cc1)NC(=O)[C@@H]1CCCN1C(=O)[C@H](CCCNC(=N)N)NC(=O)[C@@H](N)CCCCCN)C(=O)N[C@@H](CC(C)C)C(=O)O [Peptide 36] (H-[hLys]RPYIL-OH)
improvement upon the previously evaluated peptides NT-1 and NT66L (NT receptor; brain uptake): ≥ 300 fold
uptake into brain (NT receptor; rats, single 0.2-mg I.V. dose versus I.C., estimated by potency ratios (FIG. 1B)): roughly 28%

(D)-Phe-Pro-7-Ala
% Inhibition (Thrombin [3]): 82%
better competitive inhibitor than the parent peptide (Thrombin [3]; relative to (D)-Phe-Pro-Arg-Ala): ~25%

(D)-Phe-Pro-Arg-Ala ([dF]PRA) [reference compound]
% Inhibition (Thrombin [3]): 65%

Arg^(8)-Arg^(9)-Pro^(10)-Tyr^(11)-Ile^(12)-Leu^(13)-COOH [NT(8-13), reference compound]
crossing of the blood brain barrier [4]: does not cross the blood brain barrier
activity (hypothermia) / uptake into brain after I.V. injection (NT receptor; rats, I.V., 1.0 mg doses (FIG. 1A)): no activity
